In patent US20200030388A1, “COMPOSITIONS FOR MODIFYING GUT MICROBIOTA” (priority 2017, published 2020):
Several values for one entry are separate records, joined by “and”; a condition that tells them apart may be missing. Identical values can stand only once. Marks after values point to notes of the source that are not given here.

Experiments:
[1] = tested on: HFD-Induced Obese Mice (C57BL/6); experiment: GAR, FOR, LMIX, HMIX in HFD-induced obese mice, 12 weeks (Example 4)
Procedure: (§1) Four-week-old, male C57BL/6 mice were purchased from the BioLASCO Experimental Animal Center (Taiwan Co., Ltd., Taipei, Taiwan) and housed in a controlled atmosphere (25±1° C. at 50% relative humidity) with a 12 h light/12 h dark cycle. After 1 week of acclimation, animals were randomly distributed into 6 groups as follows: normal diet (ND, 15% energy from fat), high-fat diet (HFD, 50% energy from lard-based fat), and HFD supplemented with 0.01% garcinol (GAR group), 0.025% Forskolin (FOR group), 0.005% GAR+0.025% FOR (LMIX group), and 0.01% Gar+0.025% For (HMIX group) for 12 weeks. […] Animals had free access to food and water. Food consumption was monitored daily and the body weight was recorded weekly. At the end of the experiments, all animals were sacrificed by CO2 asphyxiation. Blood samples were collected from the heart for biochemical analysis. The liver, spleen, kidney, fat pads (perigonadal, retroperitoneal, and mesenteric fat), and fresh fecal pellets were immediately removed and stored at −80° C. until further analysis.
(§2) Liver and the perigonadal adipose tissue were dissected and fixed in 10% buffered formalin for at least 24 h, dehydrated with a sequence of ethanol solutions, and processed for embedding in paraffin. Sections of 4 μm in thickness were cut, deparaffinized, rehydrated, stained with hematoxylin and eosin (H&E), and subjected to photo microscopic observation. Adipocyte size was measured at 100× magnification and determined by Image J software (U. S. National Institutes of Health, Bethesda, Md., USA).

[2] = tested on: Gut Microbiota in HFD-Fed Mice; experiment: Gut microbiota classification by next generation sequencing (Example 4); format: in vivo, mouse
Procedure: Total DNA was extracted from fresh fecal samples by using the innuPREP Stool DNA kit (Analytik Jena AG, Jena, Germany) according to the manufacturer's instructions. According to the concentration, DNA was diluted to 1 ng μ L^−1 using sterile water. 6SrRNA/18SrRNA/ITS genes of distinct region (16SV4/16SV3/16SV3-V4/16SV4-V5, 18S V4/18S V9, ITS1/ITS2, Arc V4) were amplified using a specific primer (e.g. 16SV4: 515F-806R, 18S V4: 528F-706R, and 18S V9: 1380F-1510R) with a barcode. All PCR reactions were carried out using a Phusion® High-Fidelity PCR master mix (New England Biolabs, Ipswich, Mass., USA). The PCR products were mixed in ratios of equal density. Then, the mixed PCR products were purified using a Qiagen gel extraction kit (Qiagen, Hilden, Germany). Sequencing libraries were generated using the TruSeq® DNA PCR-free sample preparation kit (Illumina, San Diego, Calif., USA) following the manufacturer's recommendations, and index codes were added. The library quality was assessed using the Qubit@ 2.0 Fluorometer (Thermo Scientific) and Agilent Bioanalyzer 2100 system. Lastly, the library was sequenced using an Illumina HiSeq 2500 platform, and 250 bp paired-end reads were generated. The classification was based on the Greengenes database (https://greengenes.lbl.gov/).

[3] = tested on: HFD-Induced Obese Mice (C57BL/6); details: mouse, in vivo
Procedure: as §1, §2

[4] = 0.01% GAR, 0.025% FOR, LMIX, HMIX

- Kidney [3]: 0.4 ± 0.02^a g
- Spleen [3]: 0.06 ± 0.01^a g
SMILES: C=C[C@@]1(C)CC(=O)[C@]2(O)[C@@]3(C)[C@@H](O)CCC(C)(C)[C@@H]3[C@H](O)[C@H](OC(C)=O)[C@@]2(C)O1 [FOR, Forskolin, reference compound]
- Final weight [1, 4]: 30.5 g and 30.5 ± 2.6^c g
- Weight gain [1, 4]: 9.1 ± 1.8^c g
- Liver ([1]; organ weight): 1.5 ± 0.2^bc g
- abundance of Firmicutes ([2]; 12 weeks (HFD group 43.0%)): 33.5%
- abundance of Bacteroidetes ([2]; 12 weeks (HFD group 50.2%)): 62.2%
- OTUs difference between ND and HFD groups (Venn diagram) ([2]; 12 weeks, FIG. 23A): 34 OTUs
